Experiment [1] has as its target D(2) dopamine receptor (Homo sapiens) (UniProt P14416). The experiment is described as follows: hD2S Cerep panel.
Experiment [2] addresses 5-hydroxytryptamine receptor 5A (Homo sapiens) (UniProt P47898). The experiment is described as follows: h5HT5A Cerep panel.
Experiment [3] has as its target B2 bradykinin receptor (Homo sapiens) (UniProt P30411). The experiment is described as follows: hBK2 Cerep panel.
For experiment [4], the target named is Neuropeptide Y receptor type 2 (Homo sapiens) (UniProt P49146). The experiment is described as follows: hNPY2 Cerep panel.
Neuropeptide Y receptor type 2 (Homo sapiens), sequence (P49146 whole entry): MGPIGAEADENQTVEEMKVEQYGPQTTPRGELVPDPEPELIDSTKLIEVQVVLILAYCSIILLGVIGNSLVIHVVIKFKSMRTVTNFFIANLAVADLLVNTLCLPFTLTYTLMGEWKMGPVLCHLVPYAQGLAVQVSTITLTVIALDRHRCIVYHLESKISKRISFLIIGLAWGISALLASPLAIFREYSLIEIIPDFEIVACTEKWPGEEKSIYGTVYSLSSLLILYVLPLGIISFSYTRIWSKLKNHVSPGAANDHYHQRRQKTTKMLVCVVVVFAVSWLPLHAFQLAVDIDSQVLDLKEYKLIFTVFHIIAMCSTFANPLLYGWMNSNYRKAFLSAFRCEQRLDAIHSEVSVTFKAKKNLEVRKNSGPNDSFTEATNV
Experiment [5] has as its target D(1A) dopamine receptor (Homo sapiens) (UniProt P21728). The experiment is described as follows: hD1 Cerep panel.
Experiment [6] deals with Cholecystokinin receptor type A (Homo sapiens) (UniProt P32238). The experiment is described as follows: hCCKA Cerep panel.
Cholecystokinin receptor type A (Homo sapiens), sequence (P32238 whole entry): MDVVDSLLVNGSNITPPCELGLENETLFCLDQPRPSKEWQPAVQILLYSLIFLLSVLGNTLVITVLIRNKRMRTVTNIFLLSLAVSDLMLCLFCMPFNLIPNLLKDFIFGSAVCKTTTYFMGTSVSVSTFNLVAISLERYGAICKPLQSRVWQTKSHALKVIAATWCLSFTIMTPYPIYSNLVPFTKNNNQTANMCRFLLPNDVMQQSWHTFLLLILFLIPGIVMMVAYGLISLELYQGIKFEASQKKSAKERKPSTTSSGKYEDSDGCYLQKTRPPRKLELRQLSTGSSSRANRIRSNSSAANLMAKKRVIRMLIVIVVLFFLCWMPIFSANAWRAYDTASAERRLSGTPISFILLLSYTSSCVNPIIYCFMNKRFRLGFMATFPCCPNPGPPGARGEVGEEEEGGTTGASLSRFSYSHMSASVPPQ
In experiment [7] the target is Vasopressin V1a receptor (Homo sapiens) (UniProt P37288). The experiment is described as follows: hV1a Cerep panel.
Vasopressin V1a receptor (Homo sapiens), sequence (P37288 whole entry, looked up): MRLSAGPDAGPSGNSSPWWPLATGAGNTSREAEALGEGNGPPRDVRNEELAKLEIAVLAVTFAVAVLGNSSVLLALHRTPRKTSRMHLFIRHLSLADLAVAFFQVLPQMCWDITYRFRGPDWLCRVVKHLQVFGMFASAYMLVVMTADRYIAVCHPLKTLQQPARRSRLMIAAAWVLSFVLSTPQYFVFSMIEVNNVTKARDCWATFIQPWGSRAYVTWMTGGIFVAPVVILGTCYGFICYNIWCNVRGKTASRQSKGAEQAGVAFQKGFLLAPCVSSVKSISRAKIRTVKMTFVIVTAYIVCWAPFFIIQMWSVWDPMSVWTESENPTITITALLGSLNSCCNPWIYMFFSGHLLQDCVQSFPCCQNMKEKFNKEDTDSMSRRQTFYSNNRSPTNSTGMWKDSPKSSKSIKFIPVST
For experiment [8], the species on record is Rattus norvegicus. The experiment is described as follows: rKCH Cerep panel.
For experiment [9], the species on record is Rattus norvegicus. The experiment is described as follows: rCLCH Cerep panel.
Experiment [10] has as its target Nociceptin receptor (Homo sapiens) (UniProt P41146). The experiment is described as follows: hORL1 Cerep panel.
Experiment [11] concerns the target T1, Sodium-dependent dopamine transporter (Homo sapiens, UniProt Q01959). The experiment is described as follows: hDAT Cerep panel.
Experiment [12] concerns the target Neuromedin-K receptor (Homo sapiens) (UniProt P29371). The experiment is described as follows: hNK3 Cerep panel.
For experiment [13], the target named is T2, 5-hydroxytryptamine receptor 3A (Homo sapiens) (UniProt P46098).
T2 sequence (whole entry): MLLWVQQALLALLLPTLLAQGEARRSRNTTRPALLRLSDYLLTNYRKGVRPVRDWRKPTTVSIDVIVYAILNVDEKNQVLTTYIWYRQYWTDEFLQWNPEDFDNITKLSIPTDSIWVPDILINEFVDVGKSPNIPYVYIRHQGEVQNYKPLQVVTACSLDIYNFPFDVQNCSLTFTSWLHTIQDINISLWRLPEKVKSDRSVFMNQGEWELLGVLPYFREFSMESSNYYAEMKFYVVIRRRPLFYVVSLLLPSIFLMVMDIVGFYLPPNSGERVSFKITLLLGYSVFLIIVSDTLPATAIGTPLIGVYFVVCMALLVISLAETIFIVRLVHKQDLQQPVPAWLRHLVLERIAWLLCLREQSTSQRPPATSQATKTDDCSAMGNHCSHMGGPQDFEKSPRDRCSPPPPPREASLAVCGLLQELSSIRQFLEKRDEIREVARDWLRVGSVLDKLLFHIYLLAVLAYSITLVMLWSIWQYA
The experiment is described as follows: h5HT3 Cerep panel.

Experiment [14] in a line: cML1 Cerep panel.
Experiment [15] deals with 5-hydroxytryptamine receptor 1B (Rattus norvegicus) (UniProt P28564). The experiment is described as follows: r5HT1B Cerep panel.
Experiment [16] concerns the target Melanocortin receptor 4 (Homo sapiens) (UniProt P32245). The experiment is described as follows: hMC4 Cerep panel.
For experiment [17], the target named is Muscarinic acetylcholine receptor M3 (Homo sapiens) (UniProt P20309). The experiment is described as follows: hM3 Cerep panel.
The species named for experiment [18] is Rattus norvegicus. The experiment is described as follows: rCaCH (D888) Cerep panel.
For experiment [19], the target named is Histamine H2 receptor (Homo sapiens) (UniProt P25021). The experiment is described as follows: hH2 Cerep panel.
Histamine H2 receptor (Homo sapiens), sequence (P25021 whole entry): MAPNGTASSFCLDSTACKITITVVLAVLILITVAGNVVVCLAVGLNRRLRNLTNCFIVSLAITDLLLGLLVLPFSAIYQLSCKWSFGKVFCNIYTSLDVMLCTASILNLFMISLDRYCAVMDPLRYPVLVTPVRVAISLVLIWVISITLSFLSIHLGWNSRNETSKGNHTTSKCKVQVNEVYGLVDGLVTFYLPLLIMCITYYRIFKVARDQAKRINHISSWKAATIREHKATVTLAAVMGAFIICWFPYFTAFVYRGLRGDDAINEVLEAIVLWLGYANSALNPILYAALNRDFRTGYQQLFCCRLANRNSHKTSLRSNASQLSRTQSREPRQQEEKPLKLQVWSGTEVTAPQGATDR
Experiment [20] deals with 5-hydroxytryptamine receptor 7 (Homo sapiens) (UniProt P34969). The experiment is described as follows: h5HT7 Cerep panel.
5-hydroxytryptamine receptor 7 (Homo sapiens), sequence (P34969 whole entry): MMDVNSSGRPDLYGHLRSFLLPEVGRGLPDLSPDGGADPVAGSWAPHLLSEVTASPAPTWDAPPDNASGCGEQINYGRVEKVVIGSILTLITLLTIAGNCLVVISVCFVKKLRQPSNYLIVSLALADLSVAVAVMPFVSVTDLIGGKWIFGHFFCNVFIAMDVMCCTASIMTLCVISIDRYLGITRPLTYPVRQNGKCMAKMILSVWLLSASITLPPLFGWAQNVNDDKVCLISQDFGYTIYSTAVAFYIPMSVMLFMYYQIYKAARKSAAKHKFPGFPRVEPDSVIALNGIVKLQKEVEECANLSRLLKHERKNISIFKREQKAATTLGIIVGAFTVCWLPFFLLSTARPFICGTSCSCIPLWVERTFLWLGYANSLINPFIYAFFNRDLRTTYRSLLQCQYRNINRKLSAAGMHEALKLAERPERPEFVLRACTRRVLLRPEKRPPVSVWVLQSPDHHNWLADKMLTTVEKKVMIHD
The species named for experiment [21] is Rattus norvegicus. The experiment is described as follows: rCaCH (nitrendipine) Cerep panel.
Experiment [22] deals with D(1B) dopamine receptor (Homo sapiens) (UniProt P21918). To be noted: Compound concentration 10.0 uM.
Experiment [23] has as its target Histamine H2 receptor (Homo sapiens) (UniProt P25021). The conditions noted are these: Compound concentration 10.0 uM.
Experiment [24] addresses T3, Muscarinic acetylcholine receptor M1 (Homo sapiens) (UniProt P11229).
T3 sequence (whole entry): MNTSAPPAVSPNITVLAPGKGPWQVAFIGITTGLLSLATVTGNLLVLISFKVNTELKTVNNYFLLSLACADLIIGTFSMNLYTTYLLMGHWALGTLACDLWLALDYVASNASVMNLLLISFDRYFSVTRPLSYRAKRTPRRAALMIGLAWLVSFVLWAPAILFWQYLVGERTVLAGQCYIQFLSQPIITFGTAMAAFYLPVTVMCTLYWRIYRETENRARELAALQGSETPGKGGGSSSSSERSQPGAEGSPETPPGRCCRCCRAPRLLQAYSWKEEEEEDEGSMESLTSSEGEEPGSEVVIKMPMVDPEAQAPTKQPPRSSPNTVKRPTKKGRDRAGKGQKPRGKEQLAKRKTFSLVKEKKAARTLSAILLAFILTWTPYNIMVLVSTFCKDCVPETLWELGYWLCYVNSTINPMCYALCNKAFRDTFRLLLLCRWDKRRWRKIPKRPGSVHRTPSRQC
The experiment is described as follows: hM1 Cerep panel.

The species named for experiment [25] is Rattus norvegicus. The experiment is described as follows: rGABA Cerep panel.
In experiment [26] the target is Kappa-type opioid receptor (Homo sapiens, UniProt P41145). The experiment is described as follows: GPCRScan assay: inhibition of KOR. The arrangement: radioligand conc. used [nm] 0.6 – 1.2, parental cells stable HEK.
Kappa-type opioid receptor, sequence (P41145 whole entry): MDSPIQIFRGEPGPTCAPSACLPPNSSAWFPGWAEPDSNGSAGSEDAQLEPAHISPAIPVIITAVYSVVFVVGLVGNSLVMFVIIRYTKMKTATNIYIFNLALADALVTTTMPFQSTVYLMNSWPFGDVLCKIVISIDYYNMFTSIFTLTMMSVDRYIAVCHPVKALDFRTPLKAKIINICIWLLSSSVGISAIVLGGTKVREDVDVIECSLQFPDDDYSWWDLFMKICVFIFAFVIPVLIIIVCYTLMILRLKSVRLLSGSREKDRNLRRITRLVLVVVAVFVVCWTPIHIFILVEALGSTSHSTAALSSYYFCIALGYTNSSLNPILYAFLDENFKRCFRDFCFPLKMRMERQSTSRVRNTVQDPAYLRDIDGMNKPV
Experiment [27] has as its target Somatostatin receptor (Mus musculus) (UniProt P30935+O08858+P30875+P30873+P49660). The experiment is described as follows: mSST Cerep panel. The experiment is classed as protein assay.
Experiment [28] has as its target C-X-C chemokine receptor type 2 (Homo sapiens) (UniProt P25025). The experiment is described as follows: hBCXCR2 Cerep panel.
For experiment [29], the target named is Histamine H1 receptor (Homo sapiens) (UniProt P35367). The experiment is described as follows: hH1 Cerep panel.
Experiment [30] addresses Neurotensin receptor type 1 (Homo sapiens) (UniProt P30989). The experiment is described as follows: hNT1 Cerep panel.
In experiment [31] the target is Vasoactive intestinal polypeptide receptor 1 (Homo sapiens) (UniProt P32241). The experiment is described as follows: hVPAC1 Cerep panel.
Experiment [32] addresses D(3) dopamine receptor (Homo sapiens) (UniProt P35462). The conditions noted are these: Compound concentration 10.0 uM.
In experiment [33] the target is T4, 5-hydroxytryptamine receptor 1A (Homo sapiens) (UniProt P08908).
T4 sequence (whole entry): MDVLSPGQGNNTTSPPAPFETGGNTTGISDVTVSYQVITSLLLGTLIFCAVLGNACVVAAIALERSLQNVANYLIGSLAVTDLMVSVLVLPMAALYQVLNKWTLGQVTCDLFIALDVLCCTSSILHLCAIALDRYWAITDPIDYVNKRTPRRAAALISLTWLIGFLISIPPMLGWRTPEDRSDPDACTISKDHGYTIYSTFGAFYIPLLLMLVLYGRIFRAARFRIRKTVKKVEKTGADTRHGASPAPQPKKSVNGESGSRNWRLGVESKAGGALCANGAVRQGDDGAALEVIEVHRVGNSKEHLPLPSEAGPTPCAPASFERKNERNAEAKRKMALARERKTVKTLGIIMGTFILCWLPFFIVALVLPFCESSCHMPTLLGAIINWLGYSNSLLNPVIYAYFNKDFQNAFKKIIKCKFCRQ
The experiment is described as follows: h5HT1A Cerep panel.

Experiment [34] has as its target Adenosine receptor A3 (Homo sapiens) (UniProt P0DMS8). The experiment is described as follows: hA3 Cerep panel.
Experiment [35] concerns the target Beta-3 adrenergic receptor (Homo sapiens) (UniProt P13945). The conditions noted are these: Compound concentration 10.0 uM.
Experiment [36] concerns the target T1, Sodium-dependent dopamine transporter. The experiment is described as follows: GPCRScan assay: inhibition of DAT. More on the design: radioligand conc. used [nm] 3.6 – 16.0, parental cells stable HEK.

T1 sequence (Q01959 whole entry): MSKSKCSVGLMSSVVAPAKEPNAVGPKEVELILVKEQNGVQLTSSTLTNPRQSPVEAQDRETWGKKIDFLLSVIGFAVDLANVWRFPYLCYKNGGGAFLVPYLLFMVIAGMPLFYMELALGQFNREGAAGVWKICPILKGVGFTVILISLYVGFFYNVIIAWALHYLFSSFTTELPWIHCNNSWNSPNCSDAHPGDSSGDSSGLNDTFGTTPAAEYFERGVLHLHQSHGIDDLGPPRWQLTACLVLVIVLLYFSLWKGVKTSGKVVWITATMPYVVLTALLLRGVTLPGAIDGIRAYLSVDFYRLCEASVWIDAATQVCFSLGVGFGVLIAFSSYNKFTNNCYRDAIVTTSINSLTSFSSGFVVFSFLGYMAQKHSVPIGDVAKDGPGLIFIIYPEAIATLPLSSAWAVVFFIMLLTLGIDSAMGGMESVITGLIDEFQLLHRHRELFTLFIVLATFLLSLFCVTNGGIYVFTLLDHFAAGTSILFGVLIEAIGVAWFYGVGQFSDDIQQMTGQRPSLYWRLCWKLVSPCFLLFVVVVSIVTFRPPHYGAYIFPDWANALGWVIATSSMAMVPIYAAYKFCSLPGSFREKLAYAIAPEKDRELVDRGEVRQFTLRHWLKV
Adenosine receptor A3 (Homo sapiens), sequence (P0DMS8 whole entry): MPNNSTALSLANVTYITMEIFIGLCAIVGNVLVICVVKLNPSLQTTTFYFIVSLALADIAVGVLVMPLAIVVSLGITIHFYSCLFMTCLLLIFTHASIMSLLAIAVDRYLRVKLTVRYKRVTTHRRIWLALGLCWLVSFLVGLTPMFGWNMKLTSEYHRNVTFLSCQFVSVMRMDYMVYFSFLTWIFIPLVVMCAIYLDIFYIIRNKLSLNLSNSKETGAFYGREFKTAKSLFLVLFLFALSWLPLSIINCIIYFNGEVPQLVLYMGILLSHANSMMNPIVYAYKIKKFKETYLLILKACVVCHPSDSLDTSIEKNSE
B2 bradykinin receptor (Homo sapiens), sequence (P30411 whole entry): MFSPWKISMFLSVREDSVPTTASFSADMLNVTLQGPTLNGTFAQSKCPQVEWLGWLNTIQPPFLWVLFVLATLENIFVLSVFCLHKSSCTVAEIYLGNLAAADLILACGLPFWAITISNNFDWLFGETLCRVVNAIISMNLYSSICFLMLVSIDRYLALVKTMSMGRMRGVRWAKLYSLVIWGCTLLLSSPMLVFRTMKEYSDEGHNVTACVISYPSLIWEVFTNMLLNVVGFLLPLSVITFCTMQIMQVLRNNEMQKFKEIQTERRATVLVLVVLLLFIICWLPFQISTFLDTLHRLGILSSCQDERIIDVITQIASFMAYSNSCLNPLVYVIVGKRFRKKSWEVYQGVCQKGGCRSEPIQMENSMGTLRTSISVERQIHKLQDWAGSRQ
Melanocortin receptor 4 (Homo sapiens), sequence (P32245 whole entry): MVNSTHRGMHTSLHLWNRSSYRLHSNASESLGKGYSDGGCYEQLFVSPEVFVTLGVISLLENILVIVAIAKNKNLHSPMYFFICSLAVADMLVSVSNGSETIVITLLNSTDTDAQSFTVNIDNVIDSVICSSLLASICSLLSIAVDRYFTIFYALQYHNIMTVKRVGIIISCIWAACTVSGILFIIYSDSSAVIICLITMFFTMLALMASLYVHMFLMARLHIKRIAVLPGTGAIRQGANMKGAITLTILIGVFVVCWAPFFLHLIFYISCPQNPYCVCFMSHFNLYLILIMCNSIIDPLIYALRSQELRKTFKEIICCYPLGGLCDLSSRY
Nociceptin receptor (Homo sapiens), sequence (P41146 whole entry): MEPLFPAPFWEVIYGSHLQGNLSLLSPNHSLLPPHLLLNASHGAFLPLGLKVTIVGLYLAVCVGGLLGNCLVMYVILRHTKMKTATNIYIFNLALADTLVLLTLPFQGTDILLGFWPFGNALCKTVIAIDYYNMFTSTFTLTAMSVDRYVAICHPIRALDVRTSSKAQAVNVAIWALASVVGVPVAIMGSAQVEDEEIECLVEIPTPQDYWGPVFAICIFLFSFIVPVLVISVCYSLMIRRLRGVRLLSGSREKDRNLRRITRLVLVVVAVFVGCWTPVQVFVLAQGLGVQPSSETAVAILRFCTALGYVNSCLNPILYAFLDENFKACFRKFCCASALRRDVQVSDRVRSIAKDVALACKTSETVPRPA
5-hydroxytryptamine receptor 5A (Homo sapiens), sequence (P47898 whole entry): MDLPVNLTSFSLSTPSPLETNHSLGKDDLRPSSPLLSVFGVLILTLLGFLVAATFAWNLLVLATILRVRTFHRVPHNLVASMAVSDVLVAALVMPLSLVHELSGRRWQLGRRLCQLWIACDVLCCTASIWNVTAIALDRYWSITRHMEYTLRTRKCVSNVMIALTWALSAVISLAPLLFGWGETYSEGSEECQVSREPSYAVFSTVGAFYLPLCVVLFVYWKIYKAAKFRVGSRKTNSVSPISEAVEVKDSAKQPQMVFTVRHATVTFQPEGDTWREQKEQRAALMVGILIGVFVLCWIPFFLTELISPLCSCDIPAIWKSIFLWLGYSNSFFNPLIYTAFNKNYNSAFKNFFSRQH

As to `CC(=O)Nc1ncc(CN2CCC[C@H](Cc3cc(C)nc(C)c3)C2)s1` [JNJ-65355394], the effect in [1] was 10.5%; in experiment [2], -7.65%; in [3], 10.8%; in experiment [4] it was -2.7%; in [5], 20.1%; in experiment [6], -22%. Besides, the effect in [7] was 7.65%; in [8], 1%; in experiment [9] it was -5.7%; in experiment [10], -5.7%; in experiment [11], 19.3%; in experiment [12], 7%. Moreover, the effect in experiment [13] was 1.85%; in experiment [14] it was 11.5%; in experiment [15], -9.65%; in experiment [16] it was 1.3%; in experiment [17] it was 45.5%; in [18], 4.9%. In addition, the effect in [19] was 11.4%; in experiment [20], -1.65%; in [21], 14%; in experiment [24], 32.5%; in [25], -9.8%; in [27], 4.2%. In addition, the effect in experiment [28] is 0.85%; in [29], 5.7%; in experiment [30], 4.15%; in experiment [31], -10.1%; in experiment [33], 9.45%; in experiment [34], 16%. The inhibition in [22] was 7.69%; in experiment [23], 3.45%; in experiment [32] it was 10.3%. In addition, the Ki is 0.773 µM in [26] (read-out: Ki) and 0.741 µM in experiment [26] (read-out: pKi (converted)).
Regarding `CC(=O)Nc1nc(CN2CCC[C@H](Cc3cc(C)nc(C)c3)C2)cs1` [JNJ-73924149], the inhibition in experiment [35] is -8.59%. The results for the Ki in experiment [36] (read-out: Ki) and in experiment [36] (read-out: pKi (converted)) were 5.28 µM and 5.25 µM, respectively.
